Measurements published in ChEMBL document CHEMBL1141980, “Novel use of chemical shift in NMR as molecular descriptor: a first report on modeling carbonic anhydrase inhibitory activity and related parameters” (Bioorg Med Chem Lett, 2005).

Assay: Diuretic activity was determined
Assay type: ADME, tissue-based, Urine
Parameters: reference not given here

| SMILES | pC |
| --- | --- |
| NS(=O)(=O)c1cccc(Cl)c1 | 0.292 |
| COc1ccc(S(N)(=O)=O)cc1 | 0.188 |
| NS(=O)(=O)c1ccc([N+](=O)[O-])c(C(F)(F)F)c1 | 0.58 |
| Cc1cccc(S(N)(=O)=O)c1 | 0.176 |
| NS(=O)(=O)c1ccc(Br)cc1 | 0.267 |
| NS(=O)(=O)c1cccc([N+](=O)[O-])c1 | 0.678 |
| NS(=O)(=O)c1ccccc1Cl | 0.301 |
| N#Cc1ccc(S(N)(=O)=O)cc1 | 1 |
| Cc1ccccc1S(N)(=O)=O | 0.301 |
| NS(=O)(=O)c1ccccc1 [BENZENESULFONAMIDE] | 0.13 |
| NS(=O)(=O)c1ccc([N+](=O)[O-])cc1 | 0.824 |
| NS(=O)(=O)c1ccc(Cl)c(Cl)c1 | 0.243 |
| CC(=O)c1ccc(S(N)(=O)=O)cc1 | 0.398 |
| NS(=O)(=O)c1ccc(Cl)cc1 [P-CHLOROBENZENESULFONAMIDE] | 0.286 |
| NS(=O)(=O)c1ccc(Cl)c([N+](=O)[O-])c1 | 0.322 |
| NS(=O)(=O)c1ccccc1[N+](=O)[O-] | 0.301 |
| CNc1ccc(S(N)(=O)=O)cc1 | -0.036 |
| Cc1ccc(S(N)(=O)=O)cc1 [P-TOLUENESULFONAMIDE] | 0.182 |
| Nc1ccc(S(N)(=O)=O)cc1 [SULFANILAMIDE] | -0.301 |
